Test results from patent publication US8518993B2, “Combination of bioavailable methionine with at least one essential oil” (Adisseo Ireland Ltd., priority 2005, dated 2013).

System: ileal flora of meat chicken
Assay: Gas production in vitro by ileal contents of meat chicken (wheat-based diet)
Type: cell-based
Excerpt: The purpose of the following tests is to compare the production of gas by the flora of the ileal contents of meat chicken, in relation to various test parameters. The production of gas is an indirect indicator of the bacterial activity of the ileal flora of the chicken.
50 meat chicken are raised with a wheat-based diet. These chicken are raised with the same nutritional regimen. The chicken are sacrificed on the 35th day, then the contents of their ileum are removed in anaerobic conditions. The contents are placed in bottles which are stored at −18° C.
Based on the experimental design described in Table I below, the volume of gas produced is measured as a function of time.
48 bottles are filled successively with:
the treatment (nothing for the negative control, HMTBA, EO or the test item),
90 ml of buffer solution, containing wheat starch (nutrient medium for the bacteria); the function of this buffer solution is to maintain a constant pH and suppress O2
10 ml of inoculum, comprising a mixture of ¼ of ileal contents and ¾ of sterile physiological solution, which is filtered and homogenized before filling.
The doses tested are calculated to be representative of the concentrations of the products that would be found in the gastrointestinal contents of the animals.
Using the experimental design described in Table I above, curves of the volume of gas produced as a function of time are obtained, and are mostly sigmoidal.
These curves are modelled according to the following model: Y=A/(1+(C/t)^B) where
A, B and C=parameters of the model
Using these equations, we then analyse the modelled final volume Vf (Vf=A), as well as the time for which the rate of production of gas is maximum, called Trm (this time is used as an indirect measure of the latency, which is not accessible with this model). […] If the probability of the treatment effect is significant, i.e. if p<0.05, the means are then compared by the Fisher PLSD test, which makes it possible to establish the differences on the means between the various treatments.
The experimental conditions and parameters of Example 1 are repeated in Example 2, according to Table III below.
The experimental conditions and parameters of example 1 are repeated in Example 3, according to Table V below.
The experimental conditions and parameters of Example 1 are repeated in example 4, according to Table VII below.
For this test, ileal flora derived from 35-day-old chickens fed with a wheat-based diet is used.
In this test, one of the mixtures tested in Example 1 is tested.

[1] = Example 1, wheat-based diet, HMTBA 83 mg, EO 28-50 mg per bottle (Table I), 4 repetitions
[2] = Example 2, HMTBA 83 mg, EO 15 mg (Table III), EO1 red thyme, EO2 tea tree
[3] = Example 3, HMTBA 83 mg, EO 15 mg (Table V), EO1 cinnamon
[4] = Example 4, HMTBA 83 mg, MEO 15 mg (Table VII), MEO 3/4 tea tree and 1/4 cinnamon
[5] = Example 8, HMTBA 113 mg, origanum oil 13 mg (Table XII)

With “2-hydroxy-4-methylthiobutanoic acid [HMTBA]” the “Effect on bacterial activity measured by Trm (in words)” value (Example 1) was “little if any effect”, the “Trm: time for which the rate of production of gas is maximum, Mean” value [1] was 10.8 h and the “Vf: final volume of gas produced, Mean” value [1] was 565 mL. For the same substance, the “Trm: time for which the gas production rate is at a maximum, Mean” value (“Trm: time … at a maximum, Mean” below) [2] was 20.3 h, the “Vf: final volume of gas produced, Mean” value [2] was 296.2 mL and the “Trm: time … at a maximum, Mean” value [3] was 28.1 h. For the same substance, the “Vf: final volume of gas produced, Mean” value [3] was 334.3 mL, the “Trm: time … at a maximum, Mean” value [4] was 15.4 h and the “Vf: final volume of gas produced, Mean” value [4] was 421 mL. For the same substance, the “Trm difference with the negative control” value (Example 4, negative control Trm 11.1 h) was 4.3 h, the “Effect on fermentation / activity of the bacterial flora (in words)” value (Example 8) was “no significant effect” and the “Trm, Means” value [5] was 16.2 h. The “Vf, Means” value [5] was 353 mL.
